From patent US12091425B2 (AMGEN INC., priority 2016, dated 2024)

How the values were obtained:
[1] = tested on: OPM-2 human multiple myeloma cell line; assay: Cell Viability Assay (OPM-2 10 FBS); type: cell-based; conditions: OPM-2 cells, CellTiter-Glo
How it was run: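 Plated at 3000 cells/well in 10% FBS complete medium, the cells received a serial compound dilution series and incubated 16 h at 37 °C with 5% CO2. CellTiter-Glo was then added; IC50 values were fitted with a logistic 4-parameter model.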

[2] = target: T1, Mcl-1/Bim interaction, recombinant human Mcl-1 (171-327) (Homo sapiens, UniProt Q07820); assay: Cell free Mcl-1: Bim Affinity Assay (Mcl-1 HTRF); type: binding
T1 construct: made in house
T1 sequence (Q07820 171-327): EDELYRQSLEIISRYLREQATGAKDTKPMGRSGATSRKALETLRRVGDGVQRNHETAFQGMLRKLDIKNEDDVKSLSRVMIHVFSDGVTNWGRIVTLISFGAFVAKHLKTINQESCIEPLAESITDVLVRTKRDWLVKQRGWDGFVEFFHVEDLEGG
How it was run: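 TR-FRET competition assay with biotinylated human Bim peptide (residues 51-76); reaction plates incubated overnight before reading. IC50 values came from duplicate data fitted to a four-parameter sigmoidal competition curve.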

[3] = Homo sapiens, OPM-2, 16 h, 16 h
[4] = TR-FRET, 0.1 nM Mcl-1 (171-327), 0.05 nM biotin-Bim (51-76)
[5] = Homo sapiens, OPM-2, 16 h, 16 h incubation
[6] = cell free Mcl-1:Bim TR-FRET, recombinant human Mcl-1 (171-327)

Structure (SMILES) | IC50 [1, 3] | IC50 [2, 4] | IC50 [1, 5] | IC50 [2, 6] | IC50 ([1]; 16 h)
CCOC(=O)CO[C@@H]1/C=C/CCCS(=O)(=O)NC(=O)c2ccc3c(c2)N(C[C@@H]2CC[C@H]21)C[C@@]1(CCCc2cc(Cl)ccc21)CO3 [Example 217, ethyl(((1S,3′R,6′R,7′R,8′E)-6-chloro-13′,13′-dioxido-15′-oxo-3,4-dihydro-2H-spiro[naphthalene-1,22′-[20]oxa[13]thia[1,14]diazatetracyclo[14.7.2.0^3,6.0^19,24]pentacosa [8,16,18,24]tetraen]-7′-yl)oxy)acetate] | 2660 nM | 3.81 nM | – | – | –
CC(=O)O[C@H]1/C=C/C[C@H]2CCCN2S(=O)(=O)NC(=O)c2ccc3c(c2)N(C[C@@H]2CC[C@H]21)C[C@@]1(CCCc2cc(Cl)ccc21)CO3 (single isomer, unassigned) [Example 348] | 3560 nM | 6.86 nM | – | – | –
C[C@@H]1[C@@H](C)C/C=C/[C@H](OCC(=O)N2CC(O)(C(F)(F)F)C2)[C@@H]2CC[C@H]2CN2C[C@@]3(CCCc4cc(Cl)ccc43)COc3ccc(cc32)C(=O)NS1(=O)=O [Example 306, (1S,3′R,6′R,7′S,8′E,11′S,12′R)-6-chloro-7′-(2-(3-hydroxy-3-(trifluoromethyl)-1-azetidinyl)-2-oxoethoxy)-11′,12′-dimethyl-3,4-dihydro-2H,15′H-spiro[naphthalene-1,22′-[20]oxa[13]thia[1,14]diazatetracyclo[14.7.2.0^3,6.0^19,24]pentacosa [8,16,18,24]tetraen]-15′-one 13′,13′-dioxide] | 1140 nM | 1.2 nM | – | – | –
CO[C@H](C)CC1[C@@H](C)C/C=C/[C@H](O)[C@@H]2CC[C@H]2CN2C[C@@]3(CCCc4cc(Cl)ccc43)COc3ccc(cc32)C(=O)NS1(=O)=O (single isomer, unassigned) [Example 529] | – | – | – | 0.97 nM | 754 nM
CC(=O)N1C[C@H]2C/C=C/[C@H](O)[C@@H]3CC[C@H]3CN3C[C@@]4(CCCc5cc(Cl)ccc54)COc4ccc(cc43)C(=O)NS(=O)(=O)[C@@H]2C1 (single isomer, unassigned) [Example 338] | – | 0.241 nM | – | – | 5620 nM
CCOC[C@@H]1[C@@H](C)C/C=C/[C@H](OC)[C@@H]2CC[C@H]2CN2C[C@@]3(CCCc4cc(Cl)ccc43)COc3ccc(cc32)C(=O)NS1(=O)=O (single isomer, unassigned) [Example 469] | – | 0.973 nM | – | – | 334 nM
COC1C=CCC(OC)C(CC2CCCO2)S(=O)(=O)NC(=O)c2ccc3c(c2)N(CC2CCC21)CC1(CCCc2cc(Cl)ccc21)CO3 (single isomer, unassigned) [Example 641] | 282 nM | – | – | 0.537 nM | –
O=C1NS(=O)(=O)N(CC2CCCO2)CCC=CC(O)C2CCC2CN2CC3(CCCc4cc(Cl)ccc43)COc3ccc1cc32 (stereo not drawn) [Example 21] | 1080 nM | 0.806 nM | – | – | –
COCC[C@@H]1[C@@H](C)C/C=C/[C@H](O)[C@@H]2CC[C@H]2CN2C[C@@]3(CCCc4cc(Cl)ccc43)COc3ccc(cc32)C(=O)NS1(=O)=O (single isomer, unassigned) [Example 393] | – | 0.213 nM | – | – | 137 nM
CO[C@H](C)C[C@@H]1[C@@H](C)C/C=C/[C@H](OC)[C@@H]2CC[C@H]2CN2C[C@@]3(CCCc4cc(Cl)ccc43)COc3ccc(cc32)C(=O)NS1(=O)=O (single isomer, unassigned) [Example 535] | 162 nM | – | – | 0.389 nM | –
C[C@@H]1CS(=O)(=O)NC(=O)c2ccc3c(c2)N(C[C@@H]2CC[C@H]2[C@@H]2C[C@H](CCO2)O1)C[C@@]1(CCCc2cc(Cl)ccc21)CO3 (single isomer, unassigned) [Example 921] | – | – | – | 2.09 nM | 9160 nM
C[C@@H]1[C@@H](C)C/C=C/[C@H](OCC(=O)N2CC(C)(O)C2)[C@@H]2CC[C@H]2CN2C[C@@]3(CCCc4cc(Cl)ccc43)COc3ccc(cc32)C(=O)NS1(=O)=O [Example 305, (1S,3′R,6′R,7′S,8′E,11′S,12′R)-6-chloro-7′-(2-(3-hydroxy-3-methyl-1-azetidinyl)-2-oxoethoxy)-11′,12′-dimethyl-3,4-dihydro-2H,15′H-spiro[naphthalene-1,22′-[20]oxa[13]thia[1,14]diazatetracyclo[14.7.2.0^3,6.0^19,24]pentacosa [8,16,18,24]tetraen]-15′-one 13′,13′-dioxide] | 998 nM | 0.177 nM | – | – | –

Further lines, with some results ahead:

IC50 [1, 3] | IC50 [2, 4] | IC50 [1, 5] | IC50 [2, 6] | Structure (SMILES) | IC50 ([1]; 16 h)
– | 0.844 nM | 273 nM | – | CCOC(=O)CO[C@H]1/C=C/CC[C@@H](CC)S(=O)(=O)NC(=O)c2ccc3c(c2)N(C[C@@H]2CC[C@H]21)C[C@@]1(CCCc2cc(Cl)ccc21)CO3 [Example 1003, ethyl (((1S,3′R,6′R,7′S,8′E,12′R)-6-chloro-12′-ethyl-13′,13′-dioxido-15′-oxo-3,4-dihydro-2H-spiro[naphthalene-1,22′-[20]oxa[13]thia[1,14]diazatetracyclo[14.7.2.0^3,6.0^19,24]pentacosa [8,16,18,24]tetraen]-7′-yl)oxy)acetate] | –
– | 0.253 nM | 3890 nM | – | C[C@@H]1CC/C=C/[C@H](OCc2nc[nH]n2)[C@@H]2CC[C@H]2CN2C[C@@]3(CCCc4cc(Cl)ccc43)COc3ccc(cc32)C(=O)NS1(=O)=O [Example 958, (1S,3′R,6′R,7′S,8′E,12′R)-6-chloro-12′-methyl-7′-(4H-1,2,4-triazol-3-ylmethoxy)-3,4-dihydro-2H,15′H-spiro[naphthalene-1,22′-[20]oxa[13]thia[1,14]diazatetracyclo[14.7.2.0^3,6.0^19,24]pentacosa [8,16,18,24]tetraen]-15′-one 13′,13′-dioxide] | –
– | 0.442 nM | 308 nM | – | C[C@@H]1CC/C=C/[C@H](OCc2nnn(C)n2)[C@@H]2CC[C@H]2CN2C[C@@]3(CCCc4cc(Cl)ccc43)COc3ccc(cc32)C(=O)NS1(=O)=O [Example 957, (1S,3′R,6′R,7′S,8′E,12′R)-6-chloro-12′-methyl-7′-((2-methyl-2H-tetrazol-5-yl)methoxy)-3,4-dihydro-2H,15′H-spiro[naphthalene-1,22′-[20]oxa[13]thia[1,14]diazatetracyclo[14.7.2.0^3,6.0^19,24]pentacosa [8,16,18,24]tetraen]-15′-one 13′,13′-dioxide] | –
184 nM | – | – | 0.395 nM | C[C@@H]1[C@@H](C)C/C=C/[C@H](OCCN(C)C)[C@@H]2CC[C@H]2CN2C[C@@]3(CCCc4cc(Cl)ccc43)COc3ccc(cc32)C(=O)NS1(=O)=O [Example 513, (1S,3′R,6′R,7′S,8′E,11′S,12′R)-6-chloro-7′-(2-(dimethylamino)ethoxy)-11′,12′-dimethyl-3,4-dihydro-2H,15′H-spiro[naphthalene-1,22′-[20]oxa[13]thia[1,14]diazatetracyclo[14.7.2.0^3,6.0^19,24]pentacosa [8,16,18,24]tetraen]-15′-one 13′,13′-dioxide] | –
1720 nM | 1.62 nM | – | – | CO[C@@H]1/C=C/CCCCS(=O)(=O)NC(=O)c2ccc3c(c2)N(C[C@@H]2CC[C@H]21)C[C@@]1(CCCc2cc(Cl)ccc21)CO3 [Example 229, (1S,3′R,6′R,7′R,8′E)-6-chloro-7′-methoxy-3,4-dihydro-2H,16′H-spiro[naphthalene-1,23′-[21]oxa[14]thia[1,15]diazatetracyclo[15.7.2.0^3,6.0^20,25]hexacosa[8,17,19,25]tetraen]-16′-one 14′,14′-dioxide] | –
– | – | – | 0.239 nM | C[C@H](O)C[C@@H]1CC/C=C\[C@H](O)[C@@H]2CC[C@H]2CN2C[C@@]3(CCCc4cc(Cl)ccc43)COc3ccc(cc32)C(=O)NS1(=O)=O (single isomer, unassigned) [Example 547] | 2220 nM
